3 substances from patent US12466854B2, “Peptide useful for the transport of molecules through cell barriers” (UNIVERSITÉ GRENOBLE ALPES, priority 2022, dated 2025) can be followed below.

For the experiment, the system named is mice. Briefly: body temperature of mice after intravenous injection of peptides (hypothermia as reporter for crossing the BBB). The format is in vivo. Particulars: 2.5 mmol/kg intravenously; for hypothermia (variation in body temperature): monitored over 90 minutes.

Experimental: Body temperature was monitored using Anipill® capsules previously implanted intraperitoneally.
The monitoring was carried out over 90 minutes.

Consider “TB-NT: TB peptide fused to neurotensin, sequence RQRIWFQNRRRSRKIKKRRPYIL (SEQ ID NO: 7)”, for which the “time following injection at which hypothermia was observed” value amounted to 35 min and the “hypothermia (variation in body temperature)” value is recorded as “approximately 3 degree Celsius”.
Taken in the same sequence, the figures for “TAT-NT: reference cell penetration peptide TAT fused to neurotensin, GRKKRRQRRRPQRRPYIL (SEQ ID NO: 8), positive control [reference compound]” were 30 min and “approximately 1 degree Celsius”.
Take “TB peptide: cell penetrating peptide of amino acid sequence RQRIWFQNRRRSRKIKK (SEQ ID NO: 1)”: the “hypothermia (variation in body temperature)” value is “no signs of hypothermia”.
